Patent publication US20050129725A1, “Method of controlling pest and pest control agent” (KURARAY CO., LTD., priority 2002, published 2005)
Where two headings read alike, the source gives them in different places.

Experiments:
[1] = test system: adult female Culex pipiens; experiment: Repellent effect of treated wire net bags (mouse as blood source) on blood sucking by Culex pipiens; type: in vivo; settings: summary of Experimental Example 1
Procedure: A 20-mesh soft wire net was cut into 15×16 cm, folded into two, and open two sides (longitudinal and transverse sides) were folded to give a bag. Four of these bags were prepared. Farnesylacetone (mixing ratio:[…]/trans-trans form=15/50/35) was dissolved in ethanol at 0.2 wt % and 1 wt % and one wire net bag each was immersed in one of the obtained solutions for about 10 sec. The bag was taken out from the solution, and air-dried at room temperature for 30 min to give a farnesylacetone treated wire net bag. The wire net bag treated with farnesylacetone 0.2 wt % solution was taken as Example 1, and the wire net bag treated with farnesylacetone 1 wt % solution was taken as Example 2. […] The wire net bags of Examples 1 and 2 and Comparative Example 1 were evaluated in Experimental Example 1 for the repellent effect on adult female Culex pipiens using an untreated wire net bag as a control.
50 to 70 female adult Culex pipiens at 10-15 days after eclosion and having high blood sucking activity were released inside each of four adult raising cages (30×40×30 cm). […] As a blood sucking result, the number of the test Culex pipiens with swollen abdomen was counted at a certain time intervals after the start of the test, which number was divided by the number of test Culex pipiens to calculate a blood sucking rate (%). […]

Coptotermes formosanus = type: in vivo; settings: for number of Coptotermes formosanus in test section: 30 ants in total; for number of Coptotermes formosanus in control section: untreated half of same schale
Procedure: Three sets of experiment systems were prepared wherein quartz sand allowed to absorb a suitable amount of water was spread on a 90 mm diameter schale in a thickness of 1 mm, a 5 mm width groove was formed on a diameter line to divide the dish into two, three 8 mm diameter circular filters impregnated with a suitable amount of a solution of farnesylacetone or phytone in acetone and air-dried were placed in one test section, and three untreated circular filters were placed in the control section.
In each experiment system were each released 10 worker ants of Coptotermes formosanus and raised in an incubator at 28° C., humidity 70%. After a certain time, the number of Coptotermes formosanus in the test section and the control section was counted. The repellence rate and mortality were calculated from the following formulas. Repellence rate={1−(number of the ants in the test section/number of the survived ants)}×100 (%) Mortality=number of the dead ants/30×100 (%)

[2] = Measurement of farnesylacetone concentration in the air (gas chromatography, FID); type: physicochemical; settings: 1 hr
Procedure: Farnesylacetone (1 mL) was placed in a 50 mL sample bottle, and a large magnetic stirring bar capable of rotating the air as well was placed therein. […] Thereafter, the gas in the sample bottle was taken by 5 mL with a gas tight syringe, and using gas chromatography with an FID detector, the concentration of farnesylacetone was measured by the absolute calibration method.
(§1) Farnesylacetone (1 mL) was placed in a 50 mL sample bottle, and a large magnetic stirring bar capable of rotating the air as well was placed therein The bottle was placed neck-deep in a […] with rotation, and heated for 1 hr to fill the inside of the sample bottle with farnesylacetone vapor. Thereafter, the gas in the sample bottle was taken by 5 mL with a gas tight syringe, and using gas chromatography with an FID detector, the concentration of farnesylacetone was measured by an absolute calibration method. […] Almost simultaneously, the gas (5 mL) in the sample bottle was taken again, a propeller was set in a 10 L beaker, the gas was added into the sealed beaker, the air in the beaker was stirred with the propeller for 10 min to dilute the gas 2,000-fold, whereby gas containing […] farnesylacetone was obtained. […]

Blattella germanica = experiment: Box shelter lurking place choice test with coated paper sheets; type: in vivo; settings: summary of Experimental Example 2
Procedure: A mixture of farnesylacetone (mixing ratio:cis-cis form/cis-trans form and trans-cis form/trans-trans form=15/50/35) and vitamin E (antioxidant) (weight ratio 99:1) was dissolved in methanol at 0.06 wt % and 0.3 wt %. The obtained solutions were coated on a 0.26 mm thick paper sheet at 167 g/l m^2, and air-dried to evaporate methanol, whereby sheets having a farnesylacetone coating at 0.1 g/m^2 and 0.5 g/m^2 were obtained and used as Example 3 and Example 4, respectively. Both a farnesylacetone coating sheet prepared on the very day and one left open and uncontrolled by hanging in a room at a room temperature of 21-24° C. for 2 weeks, where ventilation rate was 10-15 times per 1 hour, were evaluated in Experimental Examples 2-4 for repellence performance against the larvae of Blattella germanica, Camponotus japonicus and Anthrenus verbasci using untreated paper sheet as a control.
One box shelter (length 8 cm×side 12.5 cm×height 2 cm, made of white corrugated cardboard) having one entrance (width 1 cm×height 2 cm) and one of the test-day-made products of Example 3 and 4, the products left open and uncontrolled for 2 weeks of Example 3 and 4 and a control paper sheet, which was adhered to an interior floor surface, was prepared for each test sample. […]

[3] = Concentration of farnesylacetone in the dog kennel; type: physicochemical; settings: kennel sprayed every week with 1% solution in ethanol; detection limit
Procedure: (§2) A dog raised in a dog kennel (vaporization area expanding means), the inside of which was sprayed every week with a 1% solution of farnesylacetone in ethanol with a spray container (reservoir means), and a dog raised in a dog kennel, the inside of which was sprayed every week with ethanol alone, were observed and compared for their behaviors for 30 min every day for one week. The dog raised in the farnesylacetone treated dog kennel scratched its body twice a day, but the dog raised in the dog kennel free of farnesylacetone treatment scratched its body 13 times a day. The concentration of farnesylacetone in the dog kennel was not more than 1 μg/L (detection limit). It is assumed that the fleas parasitic in dogs were repelled and decreased by farnesylacetone.

[4] = Odor and discomfort of sampled farnesylacetone gas in human
Procedure: Farnesylacetone (1 mL) was placed in a 50 mL sample bottle, and a large magnetic stirring bar capable of rotating the air as well was placed therein. The bottle was placed neck-deep in an oil bath at 130° C. with rotation, and heated for 1 hr to saturate the inside of the sample bottle with farnesylacetone vapor. Thereafter, the gas in the sample bottle was taken by 5 mL with a gas tight syringe, and using gas chromatography with an FID detector, the concentration of farnesylacetone was measured by the absolute calibration method.
as §1

fleas parasitic in dogs = experiment: Scratching behaviour of dog raised in sprayed dog kennel; type: in vivo; settings: kennel sprayed every week with 1% solution in ethanol; observed 30 min every day for one week
Procedure: as §2

## CCN(CC)C(=O)c1cccc(C)c1 [DEET, N,N-diethyl-m-tolamide, reference compound]
[1]
  course of repellent effect of treated wire net bag on Culex pipiens: decreases with time

## CC(=O)CCCC(C)CCCC(C)CCCC(C)C (stereo not drawn) [phytone]
Coptotermes formosanus; concentration 10%, 1 day later
  death (number of the dead ants): 0
  repellence rate: 63%
  number of Coptotermes formosanus in test section: 11
  number of Coptotermes formosanus in control section: 19
Coptotermes formosanus; concentration 50%, 1 day later
  death (number of the dead ants): 1
  repellence rate: 86%
  number of Coptotermes formosanus in test section: 4
  number of Coptotermes formosanus in control section: 25

## CC(=O)CC/C=C(\C)CC/C=C(\C)CCC=C(C)C [farnesylacetone]
[2]; sample bottle filled with vapor, water bath at 60° C.
  concentration of farnesylacetone in the gas: 20 µg/L
[2]; sample bottle saturated with vapor, oil bath at 130° C.
  concentration of farnesylacetone in the gas: 20,000 μg/L
Blattella germanica
  time for which treated paper sheet maintained Blattella germanica control effect: at least 2 weeks
[3]
  concentration of farnesylacetone in the dog kennel: not more than 1 μg/L
[4]; gas containing 20,000 μg/L
  odor and effect of sampled gas on human: had a strong odor, caused cough when inhaled in a large amount, and provoked uncomfortable feeling in human
[4]; gas further diluted 10-fold, printed as containing 0.01 μg/L
  odor of sampled gas detected by human: scarcely had an odor detected by human
Fleas parasitic in dogs
  dog scratched its body (times a day): twice a day
Coptotermes formosanus; concentration 1%, 1 day later
  death (number of the dead ants): 1
  repellence rate: 86%
  number of Coptotermes formosanus in test section: 4
  number of Coptotermes formosanus in control section: 25
Coptotermes formosanus; concentration 1%, 4 days later
  death (number of the dead ants): 1
  repellence rate: 100%
  number of Coptotermes formosanus in test section: 0
  number of Coptotermes formosanus in control section: 29
Coptotermes formosanus; concentration 5%, 1 day later
  death (number of the dead ants): 2
  repellence rate: 100%
  number of Coptotermes formosanus in test section: 0
  number of Coptotermes formosanus in control section: 28
Coptotermes formosanus; concentration 5%, 4 days later
  death (number of the dead ants): 3
  repellence rate: 96%
  number of Coptotermes formosanus in test section: 1
  number of Coptotermes formosanus in control section: 26
[1]
  course of repellent effect of treated wire net bag on Culex pipiens: maintained at a high level even after 18 hr
